Data set [1] can be described thus: Radiolabelled mass balance and metabolic profiles of 14C-parent in Sprague Dawley rats. The class given is in vivo. To be noted: single 15 mg/kg I.V. dose of 14C-parent. As to the method: To determine the radiolabelled mass balance and metabolic profiles of (3-{[4-tert-butyl-benzyl)-(pyridine-3-sulfonyl)-amino]-methyl}-phenoxy)-acetic acid in urine, feces, bile and plasma of Sprague-Dawley rats after I.V. administration of a single 15 mg/kg dose of ^14C-(3-{[4-tert-butyl-benzyl)-(pyridine-3-sulfonyl)-amino]-methyl}-phenoxy)-acetic acid.
A group of three male and three female jugular-vein cannulated Sprague-Dawley rats (230-240 g) was housed individually in stainless steel metabolic cages designed to collect urine and feces and administered intravenously a single, 15 mg/kg, dose of ^14C-(3-{[4-tert-butyl-benzyl)-(pyridine-3-sulfonyl)-amino]-methyl}-phenoxy)-acetic acid. […]
The radioactivity in urine, bile and plasma was determined by liquid scintillation counting. Aliquots of urine (0.1 g), bile (0.025 g) or plasma (0.025 g) were mixed with 5 ml of Ecolite (+) scintillation cocktail and counted in a Wallac #1409 liquid scintillation counter (Gaithersburg, Md.). Fecal samples at each time point were homogenized with water, and the total weights of the fecal homogenate were recorded. […]
The radioactivity in the dose was established as 100% of the total radioactivity. The radioactivity at each sampling time for urine and feces was defined as the percentage of dose excreted in the respective matrices. […]

The nature of data set [2]: Metabolism of 14C-parent in dog liver microsomes. The class given is in vitro ADME. To be noted: 20 μM 14C-parent, NADPH, 30 minutes, 37° C.; HPLC radiochromatogram peak. As to the method:
Human (HL-mix 12), rat, monkey and dog liver microsomes were prepared by differential centrifugation using standard procedures. Prior to use, liver microsomes were thawed on ice and reconstituted using 100 mM potassium phosphate pH 7.4. [^14C]-(3-{[4-tert-butyl-benzyl)-(pyridine-3-sulfonyl)-amino]-methyl}-phenoxy)-acetic acid was dissolved 100 mM potassium phosphate pH 7.4 at a final substrate concentration of 20 μM. Samples were pre-incubated for 3 min with microsomes (CYP 450; 0.5 μM) at 37° C. in a shaking water bath. Incubations were initiated with the addition of 100 μl cofactor (1.1 mM NADPH, 10 mM MgCl2) per 1 ml of incubation mixture. Incubations were stopped after 30 minutes by the addition of an equal volume of cold acetonitrile.
Metabolite quantification was performed by measuring the areas of individually separated HPLC peaks using the β-RAM (IN/US, Win-flow). […]
Identification of the metabolites was performed using a Finnigan TSQ 7000 triple quadrupole mass spectrometer equipped with an API-2 electrospray interface. […] The β-RAM response was recorded as a real time analog signal by the MS data collection system. The collected data from the radioactivity and MS detectors were separated by the dwell volume of flow from the MS to the radioactivity detector (corresponding to a dwell time of about 0.2 min.). […]

For `CC(C)(CO)c1ccc(CN(Cc2cccc(OCC(=O)O)c2)S(=O)(=O)c2cccnc2)cc1` [Metabolite M4, (3-{[[4-(2-hydroxy-1,1-dimethyl-ethyl)-benzyl]-(pyridine-3-sulfonyl)-amino]-methyl}-phenoxy)-acetic acid], the “Percentage of metabolite formed in vivo, females (basis of % not stated)” value in data set [1] (female rats) came to 6.5%. Further, the “Percentage of metabolite formed in vivo, males (basis of % not stated)” value in data set [1] (male rats) is 19.7%. In data set [2], the “Percent of Radioactivity, Dog liver microsomes” value is 11.5%.

The record behind these values is patent US6852863B2, “Metabolites of (3-{[4-tert-butyl-benzyl)-(pyridine-3-sulfonyl)-amino]-methyl}-phenoxy)-acetic acid” (Pfizer Inc., priority 2002, dated 2005).
